The sequences below were run against T1, human insulin (Homo sapiens, UniProt P01308) (assay: Octet RED insulin binding assay (biotinylated human insulin on streptavidin biosensors)). Conditions: Octet RED binding assays.
T1 construct: human insulin was biotinylated using a NHS-PEO4-biotin kit; biotin (chemical label, NHS-PEO4-biotin)
T1 sequence (P01308 25-54 limits assumed): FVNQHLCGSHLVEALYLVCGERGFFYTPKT
T1 sequence (P01308 90-110 limits assumed): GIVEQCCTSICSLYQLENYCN

Sequence	Specific binding to human insulin
GSLIIENGNCSGDLSTLLPNLTVIRNQVI [Analogue 2, peptide analogue from SjIR-1 L1 domain]	no specific binding
IPRDASLPFLKEVTGSLLVYDTEGPEDL [Analogue 14, peptide analogue from SjIR-2 L1]	no specific binding
HEPKCHKVIEPITN [Analogue 8, peptide analogue from SjIR-1 FnIII-1]	no specific binding
ILPVIVDEVVSLKSDTVG [Analogue 18, peptide analogue from SjIR-2 FnIII-2]	no specific binding
IGIDESESIIETIC [Analogue 7, peptide analogue from SjIR-1 FnIII-1]	no specific binding
AYLIWIRILEDNPSEY [Analogue 16, peptide analogue from SjIR-2 FnIII-1]	no specific binding
